Patent publication US20260224582A1, “Heterobicyclic amides as inhibitors of CD38” (Cerevance, Inc., priority 2022, published 2026)

Assays:
[1] = molecular target: T1, Recombinant human CD38 (Homo sapiens, UniProt P28907); experiment: Human CD38 hydrolase assay (fluorescence-based, ε-NAD substrate); assay type: biochemical; settings: recombinant human CD38 0.8 nM, 4 μM ε-NAD, 30 min preincubation at 25° C.
T1 sequence (P28907 1-300): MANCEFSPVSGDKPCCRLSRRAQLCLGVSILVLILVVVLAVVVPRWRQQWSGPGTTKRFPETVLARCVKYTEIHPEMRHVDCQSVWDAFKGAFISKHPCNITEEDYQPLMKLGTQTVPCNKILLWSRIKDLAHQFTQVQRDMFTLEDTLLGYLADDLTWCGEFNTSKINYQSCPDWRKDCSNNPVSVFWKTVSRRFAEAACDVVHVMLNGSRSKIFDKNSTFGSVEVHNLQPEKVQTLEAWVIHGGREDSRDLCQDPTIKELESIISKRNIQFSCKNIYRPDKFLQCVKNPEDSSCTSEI
How it was run: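 Recombinant human CD38 (0.8 nM) preincubated 30 min at 25 °C with compound in PBS without Ca2+/Mg2+, 0.005% BSA, pH 7.4; reaction started with 4 μM ε-NAD. Fluorescence (ex 300/em 410 nm) change over 10 min converted to percent inhibition against tool-inhibitor controls; IC50 from 10-point half-log curves, four-parameter fit.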

[2] = Tissue binding assay (equilibrium dialysis), brain homogenate; assay type: in vitro ADME; settings: mouse brain homogenate, dialysis 4 hours at 37° C., pH 7.4
Experimental: Buffer preparation. A basic solution was prepared by dissolving 14.2 g/L Na2HPO4 and 8.77 g/L NaCl in deionized H2O. An acidic solution was prepared by dissolving 15.6 g/L NaH2PO4·2H2O and 8.77 g/L NaCl in deionized H2O. Using the acidic solution, the basic solution was then titrated to pH 7.4±0.1 and stored at 4° C. for up to 1 month. The stop solution was 100% CH3CN containing 200 ng/ml tolbutamide, 200 ng/ml labetalol and 50 ng/ml metformin.
Test method. Dialysis membrane strips were soaked in ultra-pure water at room temperature for ~1 hour. Each membrane strip containing 2 membranes was separated and soaked in 20:80 EtOH/H2O (v/v) for ~20 min, after which they were ready for use or were stored in the solution at 2-8° C. for up to 1 month. Prior to the experiment, the membrane was rinsed and soaked for 20 min in ultra-pure water. On the day of experiment, brain homogenate was thawed in a water bath at room temperature and incubated at 37° C. for 10 min before use. Test and control compounds were dissolved in DMSO to achieve 10 mM stock solutions. DMSO working solutions were prepared at 400 μM by diluting 10 μL of stock solution. To prepare the time zero (t=0) samples to be used for recovery determination, 50 μL aliquots of loading matrix were transferred in triplicate to the sample collection plate. The samples were immediately matched with opposite blank buffer to obtain a final volume of 100 μL of 1:1 matrix/dialysis buffer (v/v) in each well. 500 μL of stop solution were added to these t=0 samples. They were then stored at 2-8° C. pending further processes along with other post-dialysis samples. To load the dialysis device, an aliquot of 150 μL of the loading matrix was transferred to the donor side of each dialysis well in triplicate, and 150 μL of the dialysis buffer was loaded to the receiver side of the well. The dialysis plate was placed in a humidified incubator at 37° C. with 5% CO2 on a shaking platform that rotated slowly (about 100 rpm) for 4 hours. At the end of the dialysis, aliquots of 50 μL of samples were taken from both the buffer side and the matrix side of the dialysis device. These samples were transferred into new 96-well plates. Each sample was mixed with an equal volume of opposite blank matrix (buffer or matrix) to reach a final volume of 100 μL of 1:1 matrix/dialysis buffer (v/v) in each well. All samples were further processed by adding 500 μL of stop solution containing internal standards. The mixture was vortexed and centrifuged at 4000 rpm for about 20 min. An aliquot of 100 μL of supernatant of all the samples was then removed for LC-MS/MS analysis. The single blank samples were prepared by transferring 50 μL of blank matrix to a 96-well plate and adding 50 μL of blank PBS buffer to each well. Then the matrix-matched samples were further processed by adding 500 μL of stop solution containing internal standards, following the same sample processing method as the dialysis samples.
Data analysis. The % undiluted unbound, % undiluted bound and % recovery were calculated using the following equations: […]
where F is the analyte concentration or peak area ratio of analyte/internal standard on the buffer (receiver) side of the membrane; T is the analyte concentration or peak area ratio of analyte/internal standard on the matrix (donor) side of the membrane; To is the analyte concentration or the peak area ratio of analyte/internal standard in the loading matrix sample at time zero; and D is the dilution factor determined as 4 in this assay.

Row | Compound | IC50 [1] | fraction unbound at 4 h [2]
1 | O=C(N[C@H]1CC[C@H](N2CC[C@@H](F)C2)CC1)c1nc(-n2ccnc2)nn2cccc12 [Example 14, N-((1R,4r)-4-((R)-3-fluoropyrrolidin-1-yl)cyclohexyl)-2-(1H-imidazol-1-yl)pyrrolo[2,1-f][1,2,4]triazine-4-carboxamide] | ≤ 40 nM | 0.056
2 | O=C(N[C@H]1CC[C@H](NCC(F)(F)F)CC1)c1nc(-n2ccnc2)nn2cccc12 [Example 29, 2-(1H-imidazol-1-yl)-N-((1r,4r)-4-((2,2,2-trifluoroethyl)amino)cyclohexyl)pyrrolo[2,1-f][1,2,4]triazine-4-carboxamide] | ≤ 40 nM | 0.064
3 | O=C(N[C@H]1CC[C@H](NCC(F)(F)F)CC1)c1cn2ncnc2c(-n2ccnc2)n1 [Example 20, 8-(1H-imidazol-1-yl)-N-((1r,4r)-4-((2,2,2-trifluoroethyl)amino)cyclohexyl)-[1,2,4]triazolo[1,5-a]pyrazine-6-carboxamide] | ≤ 40 nM | 0.34
4 | O=C(N[C@H]1CC[C@H](NCC(F)(F)F)CC1)c1nc(-n2ccnc2)nc2ncccc12 [Example 4, 2-(1H-imidazol-1-yl)-N-((1r,4r)-4-((2,2,2-trifluoroethyl)amino)cyclohexyl)pyrido[2,3-d]pyrimidine-4-carboxamide] | ≤ 40 nM | 0.41
5 | O=C(N[C@H]1CC[C@H](NCC(F)(F)F)CC1)c1cn2ccnc2c(-n2ccnc2)n1 [Example 19, 8-(1H-imidazol-1-yl)-N-((1r,4r)-4-((2,2,2-trifluoroethyl)amino)cyclohexyl) imidazo[1,2-a]pyrazine-6-carboxamide] | ≤ 40 nM | 0.25
6 | O=C(N[C@H]1CC[C@H](N2CCC(F)(F)C2)CC1)c1cn2ncnc2c(-n2ccnc2)n1 [Example 48, N-((1r,4r)-4-(3,3-difluoropyrrolidin-1-yl)cyclohexyl)-8-(1H-imidazol-1-yl)-[1,2,4]triazolo[1,5-a]pyrazine-6-carboxamide] | ≤ 100 nM | 0.15
7 | O=C(N[C@H]1CC[C@H](N2CCC(F)(F)C2)CC1)c1nc(-n2ccnc2)nn2cccc12 [Example 12, N-((1r,4r)-4-(3,3-difluoropyrrolidin-1-yl)cyclohexyl)-2-(1H-imidazol-1-yl)pyrrolo[2,1-f][1,2,4]triazine-4-carboxamide] | ≤ 40 nM | 0.068
8 | O=C(N[C@H]1CC[C@H](N2CCC(F)(F)C2)CC1)c1cn2ccnc2c(-n2ccnc2)n1 [Example 41, N-((1r,4r)-4-(3,3-difluoropyrrolidin-1-yl)cyclohexyl)-8-(1H-imidazol-1-yl) imidazo[1,2-a]pyrazine-6-carboxamide] | ≤ 100 nM | 0.15
9 | O=C(N[C@H]1CC[C@H](N2CC[C@H](F)C2)CC1)c1nc(-n2ccnc2)nn2cccc12 [Example 13, N-((1S,4r)-4-((S)-3-fluoropyrrolidin-1-yl)cyclohexyl)-2-(1H-imidazol-1-yl)pyrrolo[2,1-f][1,2,4]triazine-4-carboxamide] | ≤ 40 nM | 0.056
10 | O=C(N[C@H]1CC[C@H](NCC(F)(F)F)CC1)c1cn2nccc2c(-n2ccnc2)n1 [Example 21, 4-(1H-imidazol-1-yl)-N-((1r,4r)-4-((2,2,2-trifluoroethyl)amino)cyclohexyl)pyrazolo[1,5-a]pyrazine-6-carboxamide] | ≤ 40 nM | 0.34
11 | O=C(N[C@H]1CC[C@H](N2CC(F)(F)C2)CC1)c1cn2ncnc2c(-n2ccnc2)n1 [Example 45, N-((1r,4r)-4-(3,3-difluoroazetidin-1-yl)cyclohexyl)-8-(1H-imidazol-1-yl)-[1,2,4]triazolo[1,5-a]pyrazine-6-carboxamide] | ≤ 40 nM | 0.15
